Data set [1] can be described thus: Distribution coefficient, log D of the compound. Particulars: octanol/water. In kind it is physicochemical.
Data set [2] deals with T1, Mineralocorticoid receptor (Homo sapiens, UniProt P08235).
T1 sequence (P08235 whole entry): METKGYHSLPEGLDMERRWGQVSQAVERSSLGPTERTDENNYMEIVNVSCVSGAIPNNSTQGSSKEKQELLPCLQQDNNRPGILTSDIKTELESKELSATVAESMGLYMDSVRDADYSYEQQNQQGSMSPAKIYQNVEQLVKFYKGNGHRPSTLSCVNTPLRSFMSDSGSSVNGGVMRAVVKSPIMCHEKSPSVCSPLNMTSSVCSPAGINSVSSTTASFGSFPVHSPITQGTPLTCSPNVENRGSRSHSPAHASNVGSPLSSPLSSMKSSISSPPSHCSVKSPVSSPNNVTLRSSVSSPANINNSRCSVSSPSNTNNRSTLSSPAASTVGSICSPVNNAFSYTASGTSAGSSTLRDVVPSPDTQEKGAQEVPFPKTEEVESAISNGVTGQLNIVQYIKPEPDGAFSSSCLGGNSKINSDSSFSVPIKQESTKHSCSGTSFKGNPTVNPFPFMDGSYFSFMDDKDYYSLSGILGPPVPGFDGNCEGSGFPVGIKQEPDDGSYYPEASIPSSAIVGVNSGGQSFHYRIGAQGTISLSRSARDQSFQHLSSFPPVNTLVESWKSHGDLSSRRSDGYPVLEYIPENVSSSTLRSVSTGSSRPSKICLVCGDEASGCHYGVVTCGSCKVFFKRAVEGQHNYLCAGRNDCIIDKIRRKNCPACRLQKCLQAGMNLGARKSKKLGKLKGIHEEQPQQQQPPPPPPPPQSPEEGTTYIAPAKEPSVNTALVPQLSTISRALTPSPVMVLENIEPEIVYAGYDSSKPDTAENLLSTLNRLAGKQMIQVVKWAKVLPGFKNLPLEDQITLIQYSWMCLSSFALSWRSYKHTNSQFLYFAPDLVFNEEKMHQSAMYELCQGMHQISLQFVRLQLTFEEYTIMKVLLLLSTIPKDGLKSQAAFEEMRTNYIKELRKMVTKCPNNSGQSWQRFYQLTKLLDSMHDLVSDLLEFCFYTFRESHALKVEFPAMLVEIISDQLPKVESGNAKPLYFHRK
Description: Displacement of [3H]-aldosterone from human GST-tagged MR ligand binding domain after 4 hrs by liquid scintillation counting

The nature of data set [3]: Intrinsic clearance in human liver microsomes.
In data set [4] the target is T1, Mineralocorticoid receptor. This is another data set of the same source.
Description: Antagonist activity at human GAL4-DBD fused MR ligand binding domain transfected in human Huh7 cells co-expressing GAL4-RE-Luc assessed as reduction in aldosterone-induced luciferase activity after 16 hrs in presence of serum by luciferase reporter gene assay
Data set [5] is described as follows: Intrinsic clearance in rat liver microsomes. (Microsomes from liver hold many membrane-bound enzymes, among them those of drug oxidation.)
Data set [6] in a line: Clearance in rat at 1 mg/kg, iv. To be noted: in vivo.
The subject of data set [7] is Rattus norvegicus. The data set can be described thus: In vivo antagonist activity at MR in Wistar rat assessed as increase in urinary Na+ /K+ ratio at 100 mg/kg, po administered as single dose measured after 2 to 6 hrs post dose. Format: functional, organism-based.

The record followed here is ChEMBL document CHEMBL4024791, “Identification of Morpholino-2H-pyrido[3,2-b][1,4]oxazin-3(4H)-ones as Nonsteroidal Mineralocorticoid Antagonists” (J Med Chem, 2018).

Molecules are shown by their SMILES. pIC50: −log10 of the molar value. Activity calls are given as the source filed them. The rule behind the calls is not given here.

Consider `CC1(C)CN(c2ccc3c(n2)NC(=O)CO3)[C@H](c2ccccc2)CO1`, for which the logD – broadly, the decadic logarithm of the distribution of all forms, ionised or not, between an organic phase and buffer at a given pH – in data set [1] was 3.3. Moreover, the pIC50 (commonly the IC50 on a negative log10 scale, so that one unit is a factor of ten) in data set [2] is 7.07. For the same compound, the microsomal CLint – broadly, the rate of metabolic loss divided by the concentration – in data set [3] was 15.2 µL/min/mg.
As for `COC[C@@H]1CN(c2ccc3c(n2)NC(=O)CO3)[C@H](c2ccccc2)CO1`, the logD in data set [1] came to 2.5. The figures for the pIC50 in data set [2] and in data set [4] were 6.56 and 6.45, respectively. The same compound displayed a microsomal CLint in data set [3] of 8 µL/min/mg.
In the same order, the values of `C[C@@H]1CN(c2ccc3c(n2)NC(=O)CO3)[C@H](c2ccccc2F)CO1` are 3.1, 7.89, 7.48 and 14 µL/min/mg.
On to `C[C@@H]1CN(c2ccc3c(n2)NC(=O)CO3)[C@H](c2cccc(F)c2)CO1`, for which, in data set [1], the logD turned out to be 3.1. In data set [3], the microsomal CLint came to 9.6 µL/min/mg.
Compound `C[C@@H]1CN(c2cnc3c(c2)NC(=O)CO3)[C@H](c2ccccc2)CO1` had a logD in data set [1] of 1.9. This compound showed a pIC50 in data set [2] of 5.65. The microsomal CLint in data set [3] is 13.9 µL/min/mg.
Take `C[C@@H]1CN(c2ccc3c(n2)NC(=O)CO3)[C@H](c2ccc(F)cc2)CO1`: the logD in data set [1] was 3.2. The compound further registered a microsomal CLint in data set [3] of 8 µL/min/mg.
`O=C1COc2ccc(N3C[C@@H](CO)OC[C@H]3c3ccccc3)nc2N1` had a logD in data set [1] of 1.8. For the same compound, the microsomal CLint in data set [5] turned out to be 44 µL/min/mg; in data set [3], 14.8 µL/min/mg. For the same compound, the pIC50 in data set [2] is less than 5.00; in data set [4] it was 5.00. Moreover, in data set [6], the clearance (usually a measure of how efficiently the substance is removed, as volume per time) turned out to be 52 mL/min/kg.
In the case of `C[C@@H]1CN(c2ccc3c(c2)NC(=O)CO3)[C@H](c2ccccc2)CO1`, the logD in data set [1] is 3.1. The microsomal CLint was 377 µL/min/mg in data set [5] and 15.8 µL/min/mg in data set [3]. In data set [2], the pIC50 was 7.89. For the same compound, the clearance in data set [6] stood at 54 mL/min/kg.
As for `O=C1COc2ccc(N3CCOC[C@H]3c3ccccc3)nc2N1`, in data set [1], the logD stood at 2.4. In addition, in data set [2], the pIC50 is 5.93. Moreover, in data set [3], the microsomal CLint was found to be 8.9 µL/min/mg.
On the same counts, the results for `N#CC[C@@H]1CN(c2ccc3c(n2)NC(=O)CO3)[C@H](c2ccccc2)CO1` are 2.3, 7.25 and 11.9 µL/min/mg.
For the compound `COC(=O)[C@@H]1CC2=CC(=O)CC[C@]2(C)[C@@]23O[C@@H]2C[C@@]2(C)[C@@H](CC[C@@]24CCC(=O)O4)[C@H]13`, the inhibition entry in data set [7] was “Active”.
Take `C[C@@H]1CN(c2cc3c(cn2)OCC(=O)N3)[C@H](c2ccccc2)CO1`: in data set [1], the logD was 2.5. For the same compound, in data set [2], the pIC50 is 6.96. For the same compound, in data set [3], the microsomal CLint worked out at 12.6 µL/min/mg.
Compound `C[C@H]1CN(c2ccc3c(n2)NC(=O)CO3)[C@H](c2ccccc2)CO1` registered a logD in data set [1] of 2.7.
Consider `C[C@@H]1CN(c2ncc3c(n2)NC(=O)CO3)[C@H](c2ccccc2)CO1`, for which the logD in data set [1] stood at 2.7. The values for the microsomal CLint in data set [5] and in data set [3] were 146 µL/min/mg and 8 µL/min/mg, respectively. This compound also showed a pIC50 in data set [2] of 6.95. Also, the clearance in data set [6] worked out at 95 mL/min/kg.
